Test results as given in patent US12391648B2, “Pyridyloxy thioester derivative and preparation method therefor, herbicidal composition, and application” (Qingdao Kingagroot Chemical Compound Co., Ltd., priority 2018, dated 2025).

Tests used:
Experiment in all cases: Post-emergence test experiment (Table 3, 1000 g/ha)
Format in all cases: in vivo
Conditions in all cases: post-emergence spray, after 3 weeks, fresh weight inhibition
Monochoria vaginalis = system: Monochoria vaginalis
Method in brief: (§1)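 Weed seeds sown in soil-filled pots in greenhouse, sprayed at 2-3 leaf stage (2 weeks after sowing) with compound in acetone/tween-80 plus methyl oleate emulsible concentrate (1.5 L/ha) diluted in water. Fresh-weight growth inhibition scored after 3 weeks on 0-5 scale (5: >85%, 0: <5%).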

Leptochloa chinensis = system: Leptochloa chinensis
Method in brief: as §1

Setaria viridis = system: Setaria viridis
Method in brief: as §1

Digitaria sanguinalis = system: Digitaria sanguinalis
Method in brief: as §1

Galium spurium = system: Galium spurium
Method in brief: as §1

Abutilon theophrasti = system: Abutilon theophrasti
Method in brief: as §1

| SMILES | Activity level (growth inhibition rate) Monochoria Vaginalis (Monochoria vaginalis) | Activity level (growth inhibition rate) Leptochloa chinensis (Leptochloa chinensis) | Activity level (growth inhibition rate) Setaria viridis (Setaria viridis) | Activity level (growth inhibition rate) Digitaria sanguinalis (Digitaria sanguinalis) | Activity level (growth inhibition rate) Galium spurium (Galium spurium) | Activity level (growth inhibition rate) Abutilon theophrasti (Abutilon theophrasti) |
| --- | --- | --- | --- | --- | --- | --- |
| CSC(=O)C(C)Oc1nc(F)c(Br)c(N)c1Br (stereo not drawn) [Compound 12] | 5 (Level 5: the growth inhibition rate is greater than 85%) | 5 (Level 5: the growth inhibition rate is greater than 85%) | 5 (Level 5: the growth inhibition rate is greater than 85%) | 5 (Level 5: the growth inhibition rate is greater than 85%) | 5 (Level 5: the growth inhibition rate is greater than 85%) | 5 (Level 5: the growth inhibition rate is greater than 85%) |
| CC(C)CCCSC(=O)C(C)Oc1nc(F)c(Cl)c(N)c1Cl (stereo not drawn) [Compound 154] | 5 (Level 5: the growth inhibition rate is greater than 85%) | 5 (Level 5: the growth inhibition rate is greater than 85%) | 5 (Level 5: the growth inhibition rate is greater than 85%) | 5 (Level 5: the growth inhibition rate is greater than 85%) | 5 (Level 5: the growth inhibition rate is greater than 85%) | 5 (Level 5: the growth inhibition rate is greater than 85%) |
| CCCCCCC(C)SC(=O)C(C)Oc1nc(F)c(Cl)c(N)c1Cl (stereo not drawn) [Compound 135] | 5 (Level 5: the growth inhibition rate is greater than 85%) | 5 (Level 5: the growth inhibition rate is greater than 85%) | 5 (Level 5: the growth inhibition rate is greater than 85%) | 5 (Level 5: the growth inhibition rate is greater than 85%) | 5 (Level 5: the growth inhibition rate is greater than 85%) | 5 (Level 5: the growth inhibition rate is greater than 85%) |
| CC(Oc1nc(F)c(Cl)c(N)c1Cl)C(=O)SC1CC1 (stereo not drawn) [Compound 81] | 5 (Level 5: the growth inhibition rate is greater than 85%) | 5 (Level 5: the growth inhibition rate is greater than 85%) | 5 (Level 5: the growth inhibition rate is greater than 85%) | 5 (Level 5: the growth inhibition rate is greater than 85%) | 5 (Level 5: the growth inhibition rate is greater than 85%) | 5 (Level 5: the growth inhibition rate is greater than 85%) |
| CCCCCCCSC(=O)C(C)Oc1nc(F)c(Cl)c(N)c1Cl (stereo not drawn) [Compound 139] | 5 (Level 5: the growth inhibition rate is greater than 85%) | 5 (Level 5: the growth inhibition rate is greater than 85%) | 5 (Level 5: the growth inhibition rate is greater than 85%) | 5 (Level 5: the growth inhibition rate is greater than 85%) | 5 (Level 5: the growth inhibition rate is greater than 85%) | 5 (Level 5: the growth inhibition rate is greater than 85%) |
| CSC(=O)C(C)Oc1nc(F)c(Cl)c(NC(C)=O)c1Cl (stereo not drawn) [Compound 129] | 5 (Level 5: the growth inhibition rate is greater than 85%) | 5 (Level 5: the growth inhibition rate is greater than 85%) | 5 (Level 5: the growth inhibition rate is greater than 85%) | 5 (Level 5: the growth inhibition rate is greater than 85%) | 5 (Level 5: the growth inhibition rate is greater than 85%) | 5 (Level 5: the growth inhibition rate is greater than 85%) |
| CCSC(=O)C(C)Oc1ncc(Cl)c(N)c1C(F)(F)F (stereo not drawn) [Compound 16] | 5 (Level 5: the growth inhibition rate is greater than 85%) | 5 (Level 5: the growth inhibition rate is greater than 85%) | 5 (Level 5: the growth inhibition rate is greater than 85%) | 5 (Level 5: the growth inhibition rate is greater than 85%) | 5 (Level 5: the growth inhibition rate is greater than 85%) | 5 (Level 5: the growth inhibition rate is greater than 85%) |
| CSC(=O)C(C)Oc1nc(Cl)c(C2CC2)c(N)c1Cl (stereo not drawn) [Compound 10] | 5 (Level 5: the growth inhibition rate is greater than 85%) | 5 (Level 5: the growth inhibition rate is greater than 85%) | 5 (Level 5: the growth inhibition rate is greater than 85%) | 5 (Level 5: the growth inhibition rate is greater than 85%) | 5 (Level 5: the growth inhibition rate is greater than 85%) | 5 (Level 5: the growth inhibition rate is greater than 85%) |
| CC(Oc1nc(F)c(Cl)c(N)c1Cl)C(=O)SCC(C)(C)C (stereo not drawn) [Compound 148] | 5 (Level 5: the growth inhibition rate is greater than 85%) | 5 (Level 5: the growth inhibition rate is greater than 85%) | 5 (Level 5: the growth inhibition rate is greater than 85%) | 5 (Level 5: the growth inhibition rate is greater than 85%) | 5 (Level 5: the growth inhibition rate is greater than 85%) | 5 (Level 5: the growth inhibition rate is greater than 85%) |
| CC(Oc1nc(F)c(Cl)c(N)c1Cl)C(=O)Sc1ccccc1 (stereo not drawn) [Compound 107] | 5 (Level 5: the growth inhibition rate is greater than 85%) | 5 (Level 5: the growth inhibition rate is greater than 85%) | 5 (Level 5: the growth inhibition rate is greater than 85%) | 5 (Level 5: the growth inhibition rate is greater than 85%) | 5 (Level 5: the growth inhibition rate is greater than 85%) | 5 (Level 5: the growth inhibition rate is greater than 85%) |
| CC(C)=NSC(=O)C(C)Oc1nc(F)c(Cl)c(N)c1Cl (stereo not drawn) [Compound 102] | 5 (Level 5: the growth inhibition rate is greater than 85%) | 5 (Level 5: the growth inhibition rate is greater than 85%) | 5 (Level 5: the growth inhibition rate is greater than 85%) | 5 (Level 5: the growth inhibition rate is greater than 85%) | 5 (Level 5: the growth inhibition rate is greater than 85%) | 5 (Level 5: the growth inhibition rate is greater than 85%) |
| CSC(=O)C(C)Oc1nc(F)c(Cl)c(NCc2ccc(C(F)(F)F)o2)c1Cl (stereo not drawn) [Compound 161] | 5 (Level 5: the growth inhibition rate is greater than 85%) | 5 (Level 5: the growth inhibition rate is greater than 85%) | 5 (Level 5: the growth inhibition rate is greater than 85%) | 5 (Level 5: the growth inhibition rate is greater than 85%) | 5 (Level 5: the growth inhibition rate is greater than 85%) | 5 (Level 5: the growth inhibition rate is greater than 85%) |
| CSC(=O)C(C)Oc1nc(Cl)c(Cl)c(N)c1Cl (stereo not drawn) [Compound 2] | 5 (Level 5: the growth inhibition rate is greater than 85%) | 5 (Level 5: the growth inhibition rate is greater than 85%) | 5 (Level 5: the growth inhibition rate is greater than 85%) | 5 (Level 5: the growth inhibition rate is greater than 85%) | 5 (Level 5: the growth inhibition rate is greater than 85%) | 5 (Level 5: the growth inhibition rate is greater than 85%) |
| CC(C)SC(=O)C(C)Oc1nc(F)c(Cl)c(N)c1Cl (stereo not drawn) [Compound 68] | 5 (Level 5: the growth inhibition rate is greater than 85%) | 5 (Level 5: the growth inhibition rate is greater than 85%) | 5 (Level 5: the growth inhibition rate is greater than 85%) | 5 (Level 5: the growth inhibition rate is greater than 85%) | 5 (Level 5: the growth inhibition rate is greater than 85%) | 5 (Level 5: the growth inhibition rate is greater than 85%) |
